Data taken from US11439641B2, “Pyrimidine JAK inhibitors for the treatment of skin diseases” (THERAVANCE BIOPHARMA R&D IP, LLC, priority 2019, dated 2022).
In brackets after ≈: the same amount, converted by molar mass.

Assays:
[1] = system: IL-2 stimulated pSTAT5 in Tall-1 T cells; assay: Inhibition of IL-2 Stimulated pSTAT5 in Tall-1 T Cells; assay type: cell-based; conditions: Tall-1 human T cell line, IL-2 300 ng/mL, AlphaLisa
Method in brief: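 Cells preincubated with compound 1 hour at 37° C, then stimulated with IL-2 (final 300 ng/mL) for 30 minutes. After lysis, pSTAT5 (Tyr694/699) read by AlphaLISA luminescence. IC50 from inhibition curves, reported as pIC50 (mean±SD).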

Caco-2 cell monolayer = assay: Caco-2 Permeation Assay; assay type: in vitro ADME; conditions: Papp, 5 μM compound; for Caco Kp 10^−6 cm/sec: apical to basal (A→B); for Cacoverap Kp 10^−6 cm/sec: A→B in the presence of 25 μM verapamil (P-gp inhibitor)
Method in brief: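 Compound at 5 μM, in duplicate, crosses Caco-2 monolayers apical to basal over 120 min at 37 °C. This is run with and without 25 μM verapamil to test for P-gp efflux. Samples are quantified by LC-MS/MS, and Papp in cm/sec is calculated as dQ/(dt × area × concentration).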

Aqueous Solubility Assay = conditions: PBS buffer pH 7.4; maximum upper limit 1,000 μM
[2] = Solubility Assay in Organic Excipients; conditions: maximum upper limit 20,000 μM; for Solubility in MCT (mg/mL): medium chain triglycerides (MCT)
physchem = conditions: thermodynamic from solid

Row | SMILES | Tall-1 IL2 pSTAT5 (pIC50) [1] | Caco Kp 10^−6 cm/sec (Caco-2 cell monolayer) | Solubility at PH 7.4 (μmol) (Aqueous Solubility Assay) | Solubility in PEG400 (mg/mL) [2] | Solubility in Diisopropyl adipate (mg/mL) [2] | Solubility in MCT (mg/mL) [2] | Solubility in Propylene glycol (mg/mL) [2] | IC50 ([1]; read-out: Tall-1 IL2 pSTAT5 (pIC50) (converted)) [µM] | Cacoverap Kp 10^−6 cm/sec (Caco-2 cell monolayer) | solubility at 4 h (physchem; oil or lipid, Solubility in MCT (mg/mL)) [mg/mL] | solubility at 4 h (physchem; organic solvent or mixture, Solubility in Diisopropyl adipate (mg/mL)) [mg/mL] | solubility at 4 h (physchem; organic solvent or mixture, Solubility in PEG400 (mg/mL)) [mg/mL] | solubility at 4 h (physchem; organic solvent or mixture, Solubility in Propylene glycol (mg/mL)) [mg/mL]
1 | CCS(=O)(=O)N1[C@@H]2CCC[C@H]1C[C@H](N(C)c1nc(CO[C@H]3CCOC3)c(F)c(Nc3cc(C)[nH]n3)n1)C2 [Compound 42, N2-((1R,3s,5S)-9-(ethylsulfonyl)-9-azabicyclo[3.3.1]nonan-3-yl)-5-fluoro-N2-methyl-N4-(5-methyl-1H-pyrazol-3-yl)-6-((((S)-tetrahydrofuran-3-yl)oxy)methyl)pyrimidine-2,4-diamine] | A (A represents a pIC50 value ≥8.0) | A (A represents a value above 30×10^−6 cm/sec) | B (B represents a value between 250 and 500) | A (A represents a value above 10) | A (A represents a value above 10) | C (C represents a value below 5) | A (A represents a value above 10) | – | – | – | – | – | –
2 | COC(=O)N1[C@@H]2CCC[C@H]1C[C@H](N(C)c1nc(Nc3cc(C)[nH]n3)cc(O[C@@H]3CCOC3)n1)C2 [Compound 23] | – | A (A represents a value above 30×10^−6 cm/sec) | – | – | – | – | – | 0.01 to 0.0316 | B (B represents a value between 20×10^−6 and 35×10^−6 cm/sec) | 5 to 10 (≈ 10.6 to 21.2 mM) | > 10 | 5 to 10 (≈ 10.6 to 21.2 mM) | > 10
3 | CCS(=O)(=O)N1[C@@H]2CCC[C@H]1C[C@H](N(C)c1nc(Nc3cc(C)[nH]n3)cc(C3CCCO3)n1)C2 (stereo partly drawn) [Compound 8, N^2-((1R,3s,5S)-9-(ethylsulfonyl)-9-azabicyclo[3.3.1]nonan-3-yl)-N2-methyl-N4-(5-methyl-1H-pyrazol-3-yl)-6-(tetrahydrofuran-2-yl)pyrimidine-2,4-diamine] | A (A represents a pIC50 value ≥8.0) | A (A represents a value above 30×10^−6 cm/sec) | C (C represents a value between 50 and 250) | A (A represents a value above 10) | B (B represents a value between 5 and 10) | C (C represents a value below 5) | A (A represents a value above 10) | – | A (A represents a value above 35×10^−6 cm/sec) | – | – | – | –
4 | CCS(=O)(=O)N1[C@@H]2CCC[C@H]1C[C@H](N(C)c1nc(CO[C@@H]3CCOC3)c(F)c(Nc3cc(C)[nH]n3)n1)C2 [Compound 43, N2-((1R,3s,5S)-9-(ethylsulfonyl)-9-azabicyclo[3.3.1]nonan-3-yl)-5-fluoro-N2-methyl-N4-(5-methyl-1H-pyrazol-3-yl)-6-((((R)-tetrahydrofuran-3-yl)oxy)methyl)pyrimidine-2,4-diamine] | A (A represents a pIC50 value ≥8.0) | A (A represents a value above 30×10^−6 cm/sec) | B (B represents a value between 250 and 500) | A (A represents a value above 10) | A (A represents a value above 10) | C (C represents a value below 5) | A (A represents a value above 10) | – | – | – | – | – | –
5 | CCS(=O)(=O)N1[C@@H]2CCC[C@H]1C[C@H](N(C)c1nc(COC3COC3)c(F)c(Nc3cc(C)[nH]n3)n1)C2 [Compound 41, N2-((1R,3s,5S)-9-(ethylsulfonyl)-9-azabicyclo[3.3.1]nonan-3-yl)-5-fluoro-N2-methyl-N4-(5-methyl-1H-pyrazol-3-yl)-6-((oxetan-3-yloxy)methyl)pyrimidine-2,4-diamine] | A (A represents a pIC50 value ≥8.0) | A (A represents a value above 30×10^−6 cm/sec) | D (D represents a value between 10 and 50) | B (B represents a value between 5 and 10) | A (A represents a value above 10) | C (C represents a value below 5) | A (A represents a value above 10) | – | A (A represents a value above 35×10^−6 cm/sec) | – | – | – | –
